Patent US6828341B2, “Cyclohexylamine derivatives as subtype selective N-Methyl-D-Aspartate antagonists” (Warner-Lambert Company, priority 2001, dated 2004)
Counter-ions that a name gives are not always drawn.

Columns and labels:
[1] = target: T1, NR1A/NR2B NMDA receptor subtype (Rattus norvegicus, UniProt P35439+Q00960); assay: [3H]Ifenprodil binding assay (IFPNR); settings: displacement of 4 nM [3H]-ifenprodil, adult rat forebrain membranes, 2 hours at room temperature, pH 7.4
T1 construct: membrane fraction was prepared from frozen adult rat forebrains; tissue Zivic-Miller Laboratories, Inc; host or cells: adult rat forebrain, washed buffy coat membrane fraction
T1 sequence (Q00960 27-1482, other chains not shown): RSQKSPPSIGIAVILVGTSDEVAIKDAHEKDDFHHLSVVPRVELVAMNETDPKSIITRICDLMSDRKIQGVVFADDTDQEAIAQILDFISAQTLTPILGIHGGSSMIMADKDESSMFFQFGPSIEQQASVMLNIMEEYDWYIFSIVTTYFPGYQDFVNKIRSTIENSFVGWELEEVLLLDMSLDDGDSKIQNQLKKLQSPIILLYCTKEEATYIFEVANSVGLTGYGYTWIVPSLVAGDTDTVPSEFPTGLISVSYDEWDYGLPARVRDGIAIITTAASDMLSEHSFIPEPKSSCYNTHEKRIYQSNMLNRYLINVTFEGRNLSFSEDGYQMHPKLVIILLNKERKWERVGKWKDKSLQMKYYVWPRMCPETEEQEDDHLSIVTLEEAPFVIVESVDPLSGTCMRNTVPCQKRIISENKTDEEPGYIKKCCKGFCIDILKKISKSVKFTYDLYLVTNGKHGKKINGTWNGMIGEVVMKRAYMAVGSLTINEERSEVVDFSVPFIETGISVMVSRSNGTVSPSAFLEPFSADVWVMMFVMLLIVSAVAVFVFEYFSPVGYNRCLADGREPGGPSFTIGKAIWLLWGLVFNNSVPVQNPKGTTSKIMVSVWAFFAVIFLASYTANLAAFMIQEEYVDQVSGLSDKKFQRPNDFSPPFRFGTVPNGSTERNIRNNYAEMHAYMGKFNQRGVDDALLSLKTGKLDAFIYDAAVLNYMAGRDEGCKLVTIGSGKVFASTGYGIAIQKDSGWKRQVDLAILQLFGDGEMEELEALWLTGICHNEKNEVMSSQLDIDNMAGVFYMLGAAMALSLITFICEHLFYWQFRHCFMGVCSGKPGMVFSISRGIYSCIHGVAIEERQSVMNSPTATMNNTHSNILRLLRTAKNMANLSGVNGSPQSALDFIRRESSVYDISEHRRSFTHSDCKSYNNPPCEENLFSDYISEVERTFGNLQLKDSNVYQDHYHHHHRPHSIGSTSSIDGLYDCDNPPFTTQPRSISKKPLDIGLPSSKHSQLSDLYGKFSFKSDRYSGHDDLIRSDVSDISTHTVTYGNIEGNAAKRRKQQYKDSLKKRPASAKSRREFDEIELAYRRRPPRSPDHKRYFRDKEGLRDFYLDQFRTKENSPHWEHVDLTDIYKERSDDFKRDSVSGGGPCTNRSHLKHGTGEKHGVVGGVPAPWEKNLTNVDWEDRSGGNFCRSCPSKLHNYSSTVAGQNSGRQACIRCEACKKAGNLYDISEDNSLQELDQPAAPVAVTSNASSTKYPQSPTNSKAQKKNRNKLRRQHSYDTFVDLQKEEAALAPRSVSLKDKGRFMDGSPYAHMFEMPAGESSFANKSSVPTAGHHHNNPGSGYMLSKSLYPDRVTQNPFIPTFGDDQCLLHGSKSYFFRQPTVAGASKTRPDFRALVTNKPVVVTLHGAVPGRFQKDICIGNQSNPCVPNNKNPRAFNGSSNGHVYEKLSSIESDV
Protocol: (b) [^3H]Ifenprodil Binding Assay (IFPNR) Protocol:
Ifenprodil, [phenyl-^3H]-(specific activity, 66.2 Ci/mmol) was purchased from Dupont NEN Research Products (Boston, Mass.). Ifenprodil tartrate was purchased from Research Biochemicals International (Natick, Mass.). HEPES, glutamate, and glycine were purchased from Sigma Chemical Co. (St. Louis, Mo.).
All buffers and reagents used in assay incubations or to dissolve drugs were prepared using water purified through a Milli-Q reverse osmosis system (Millipore Corp., Bedford, Mass.) and treated with UV emissions. Prior to use in the assays buffers were further filtered through a sterile Corning filtration unit (Corning Glass Works, Corning, N.Y.) containing a 0.2 micron filter. Buffer used to rinse the membranes on the assay filters was prepared with purified water, but was not refiltered and was stored no longer than 5 days. Stock solutions of the drugs (usually 10 mM) were dissolved in 20 mM HEPES-KOH buffer pH 7.4 (assay buffer) with the addition of from 1 to 5 μL of glacial AcOH, if needed to keep them in solution. Eliprodil was used as the reference NMDA antagonist. A stock solution of eliprodil was prepared and was buffered with the addition of 10% DMSO. All subsequent dilutions from the stock solution were made in buffer.
An extensively washed buffy coat membrane fraction was prepared from frozen adult rat forebrains (Zivic-Miller Laboratories, Inc., Zelienople, Pa.) as described by Coughenour L. L., Cordon J. J., J. Phannacol. Exp. Ther., 1997;280:584-592, and stored at −80° C. On the day of the assay, pellets of the frozen membrane fractions were resuspended in 35 mL of assay buffer at pH 7.4 using a POLYTRON (Kinematica A.G. Company, Littau, Switzerland) mixer at setting 6. After incubation at 37° C. for 30 minutes in a shaking water bath, the homogenate was centrifuged 40,000×g for 10 minutes at 4° C. The pellets were resuspended in fresh buffer and centrifuged 3 more times before final suspension for use in the assay.
Triplicate incubations were carried out in a volume of 0.5 mL in 1.3 mL polypropylene tubes (Marsh Biomedical Products Inc., Rochester, N.Y.) for 2 hours at room temperature. Incubations contained invention compounds, membranes (100-200 μg protein) and 4 nM [^3H]-ifenprodil in 20 mM HEPES-KOH buffer, pH 7.4 (assay buffer). Assays were started by addition of the membranes. Bound radioligand was separated by filtration under reduced pressure using a TOMTEC Mach II, 96 well cell harvester (Tomtec Inc, Orange, Conn.). Filtration was through Whatman GF/B glass fiber filters (Whatman Ltd., Maidstone, England), which had been soaked for at least 15 minutes in 0.3% polyethylenimine and allowed to air dry. The filters were rinsed with 3 mL of ice cold assay buffer within 6 seconds. Air was allowed to pass through the filters for an additional 10 seconds to remove residual moisture. The filter mat was supported on a cold (−20° C.) TEFLON (E. I. Du Pont de Nemours and Company, Wilmington, Del.) coated support, and filters from individual wells were separated and placed in Mini Poly-Q vials (Beckman Instruments Inc., Fullerton, Calif.) and filled with 4 mL of scintillation cocktail (Beckman Ready Protein^+). Radioactivity retained on the filter was determined by liquid scintillation spectrophotometry. Nonspecific binding was defined as the binding in the presence of 1 mM ifenprodil. 90% of the total binding of ifenprodil was specific binding at the NR1A/NR2B NMDA receptor subtype active site (as opposed to binding at a remote site).
Binding curves were statistically analyzed for a best one- or two-site competition fit using GRAPHPAD PRISM software (GraphPad Software Inc., San Diego, Calif.), a computer program used to analyze and graph scientific data. The normalized data was fitted by nonweighted nonlinear regression to either [formula]
Control data was entered as 100%, and no parameters were constrained. […]

| Compound | melting point | IC50 [1] |
| --- | --- | --- |
| Cc1oc(-c2ccccc2)cc1CN(C)[C@H]1CC[C@H](c2ccc3[nH]c(=O)oc3c2)CC1 (as salt: hydrochloride) [Example 2, trans-6-{4-[Methyl-(2-methyl-5-phenyl-furan-3-ylmethyl)-amino]-cyclohexyl}-3H-benzoxazol-2-one] | 176 to 183 °C | – |
| CN(CC1CC(c2ccc3[nH]c(=O)oc3c2)=NO1)[C@H]1CC[C@H](c2ccccc2)CC1 (relative stereo) (as salt: hydrochloride) [Example 1, trans-6-(5-{[Methyl-(4-phenyl-cyclohexyl)-amino]-methyl}-4,5-dihydro-isoxazol-3-yl)-3H-benzoxazol-2-one] | 270 to 274 °C | – |
| CN(CC1CC(c2ccc3[nH]c(=O)oc3c2)=NO1)[C@H]1CC[C@H](c2ccccc2)CC1 (relative stereo) [Example 1, trans-6-(5-{[Methyl-(4-phenyl-cyclohexyl)-amino]-methyl}-4,5-dihydro-isoxazol-3-yl)-3H-benzoxazol-2-one] | – | 5.91 µM |
| CN(CC1CC(c2ccc(F)cc2)=NO1)[C@H]1CC[C@H](c2ccc3[nH]c(=O)oc3c2)CC1 (relative stereo) [Example 6b, trans-6-(4-{[3-(4-Fluoro-phenyl)-4,5-dihydro-isoxazol-5-ylmethyl]-methyl-amino}-cyclohexyl)-3H-benzoxazol-2-one] | 109 to 114 °C | 0.391 µM |
| Cc1oc(-c2ccccc2)cc1CN(C)[C@H]1CC[C@H](c2ccc3[nH]c(=O)oc3c2)CC1 [Example 2, trans-6-{4-[Methyl-(2-methyl-5-phenyl-furan-3-ylmethyl)-amino]-cyclohexyl}-3H-benzoxazol-2-one] | – | 6.67 µM |
| CN(C[C@@H]1CN(c2ccccc2)C(=O)O1)[C@H]1CC[C@H](c2ccc3[nH]c(=O)oc3c2)CC1 [Example 3b, trans-(R)-6-{4-[Methyl-(2-oxo-3-phenyl-oxazolidin-5-ylmethyl)-amino]-cyclohexyl}-3H-benzoxazol-2-one] | – | 0.394 µM |
| O=C1OC(CNC2CCC(c3ccc(F)cc3)CC2)CN1c1ccc2[nH]c(=O)oc2c1 (stereo not drawn) [Example 4a, trans-6-{5-[4-(4-Fluoro-phenyl)-cyclohexylamino]-methyl-2-oxo-oxazolindin-3-yl}-3H-benzoxazol-2-one] | – | > 1 µM |
| CN(CC1CN(c2ccc3[nH]c(=O)oc3c2)C(=O)O1)C1CCC(c2ccc(F)cc2)CC1 (stereo not drawn) [Example 4b, trans-6-(5-{[4-(4-Fluoro-phenyl)-cyclohexyl]-methyl-amino}-methyl-2-oxo-oxazolindin-3-yl)-3H-benzoxazol-2-one] | – | > 1 µM |
| Cc1sc(-c2ccccc2)nc1CN(C)[C@H]1CC[C@H](c2ccc3[nH]c(=O)oc3c2)CC1 [Example 5b, trans-6-{4-[Methyl-(5-methyl-2-phenyl-thiazol-4-ylmethyl)-amino]-cyclohexyl}-3H-benzoxazol-2-one] | 246 to 248 °C | 0.848 µM |
